pKi: −log10 of the molar value. “Also recorded” adds a separate entry of the source. Like-named read-outs stand apart in the source and are kept apart here.
Columns and labels:
[1] = system: TCPTP1-281; assay: pNPP hydrolysis by TC-PTP lacking the α7-equivalent region; assay type: biochemical, H. sapiens; details: for change in PTP1B/TC-PTP selectivity on removal of the α7 helix (or equivalent) from both enzymes: PTP1B1-281 and TCPTP1-281 vs full constructs; for pKi: TCPTP1-281
Description: Enzyme kinetics. To examine terpenoid-mediated inhibition, we measured PTP-catalyzed hydrolysis of p-nitrophenyl phosphate (pNPP) or 4-methylumbelliferyl phosphate (4-MUP, used when KM for pNPP was large) in the presence of various concentrations of terpenoids. Each reaction included PTP (0.05 μM PTP1B/TCPTP or 0.1 μM SHP1/SHP2 in 50 mM HEPES, 0.5 mM TCEP, 50 μg/ml BSA), pNPP (0.33, 0.67, 2, 5, 10, and 15 mM) or 4-MUP (0.13, 0.27, 0.8, 2.27, 2.93, 4.53, 7.07, and 8 mM), inhibitor (with concentrations listed in the figures), buffer (50 mM HEPES pH=7.3, 50 μg/ml BSA), and DMSO at 10% v/v. We monitored the formation of p-nitrophenol by measuring absorbance at 405 nm every 10 seconds for 5 minutes on a SpectraMax M2 plate reader and the formation of 4-methylumbelliferyl by measuring fluorescence at 450 nm (370 nm ex, 435 nm cutoff, medium gain).
We used a custom MATLAB script to process all raw kinetic data. This script removed all concentration values that fell outside of either (i) the range of our standard curve (absorbance/fluorescence vs. μM; FIG. 39) or (ii) the initial rate regime (>10% of the pNPP or 4-MUP concentration used in the assay). When this step reduced kinetic dataset to fewer than ten points, we re-measured those datasets to collect at least ten. We fit final datasets, in turn, with a linear regression model (using Matlab's backslash operator).
We evaluated kinetic models in three steps: (i) We fit initial-rate measurements collected in the absence and presence of inhibitors to Michaelis-Menten and inhibition models, respectively (here, we used the nlinfit and fminsearch functions from MATLAB; TABLE 12). (ii) We used an F-test to compare the mixed model to the single-parameter model with the least sum squared error (here, we used the fedf function from MATLAB to assign p-values), and we accepted the mixed model when p<0.05. (iii) We used the Akaike's Information Criterion (AIC) to compare the best-fit single parameter model to each alternative single parameter model, and we accepted the “best-fit” model when the difference in AIC (Δi) exceed 5 for all comparisons.^78 We note: For AD, AB, and (+) 1-(10),4-cadinadiene this criterion was not met; both noncompetitive and uncompetitive models, however, yielded indistinguishable ICso's.
We used the MATLAB function “nlparci” to determine the confidence intervals of kinetic parameters, and we propagated those intervals to estimate corresponding confidence intervals for each IC50.

[2] = target: T1, PTP1B (Homo sapiens, UniProt P18031); assay type: cell-based, H. sapiens; details: terpenoid produced in the cell by its metabolic pathway
T1 construct: In this study, we used a well-studied truncation variant (i.e., PTP1B1-321); His-tag; made in house; host or cells: E. coli BL21 (DE3), pET21b
T1 sequence (P18031 1-321): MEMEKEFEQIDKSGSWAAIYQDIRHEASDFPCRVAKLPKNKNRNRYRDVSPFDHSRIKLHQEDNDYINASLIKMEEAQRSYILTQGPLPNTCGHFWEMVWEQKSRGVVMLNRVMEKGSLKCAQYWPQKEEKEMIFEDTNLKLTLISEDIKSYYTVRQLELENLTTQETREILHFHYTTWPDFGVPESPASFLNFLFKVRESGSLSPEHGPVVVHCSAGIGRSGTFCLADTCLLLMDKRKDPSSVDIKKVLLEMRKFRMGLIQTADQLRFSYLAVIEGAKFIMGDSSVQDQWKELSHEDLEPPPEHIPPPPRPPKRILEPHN

[3] = competitive model of inhibition, read-out: Fit par. Ki, competitive model
[4] = mixed model, uncompetitive constant, read-out: Fit par. Ki,u, mixed model
[5] = noncompetitive model of inhibition, read-out: Fit par. Ki, noncompetitive model
[6] = uncompetitive model of inhibition, read-out: Fit par. Ki, uncompetitive model

## C=C(C)[C@@H]1CC[C@@H](C)[C@@H]2CCC(C)=C[C@@H]21 [amorphadiene]
[1]; listed as AD
  change in PTP1B/TC-PTP selectivity on removal of the α7 helix (or equivalent) from both enzymes: four-fold; also recorded: reduces the selectivity
[1]; [3]
  pKi: 4.06
[1]; [4]
  pKi: 3.45
[1]; [5]
  pKi: 3.40
[1]; [6]
  pKi: 3.45
[2]
  survival of E. coli with PTP1B B2H system on spectinomycin: permitted survival at high concentrations of antibiotic

## CC(C)=CCC=C(C)C1CC=C(C)CC1 (stereo not drawn) [α-bisabolene]
[1]; listed as AB
  change in PTP1B/TC-PTP selectivity on removal of the α7 helix (or equivalent) from both enzymes: insensitive and not
[1]; [3]
  pKi: 4.86
[1]; mixed model, competitive constant, read-out: Fit par. Ki,c, mixed model
  pKi: 2.44
[1]; [4]
  pKi: 4.16
[1]; [5]
  pKi: 4.12
[1]; [6]
  pKi: 4.16
[2]
  survival of E. coli with PTP1B B2H system on spectinomycin: permitted survival at high concentrations of antibiotic
